Results reported in patent US20250057994A1, “LABELED COMPOUNDS AND CALCIUM SENSING RECEPTOR LIGANDS FOR IMAGING AND USES THEREOF” (The University of North Carolina at Chapel Hill, priority 2021, published 2025).

Experiments:
[1] = In vivo acute toxicity study with overdose of cold standard; parameters: species or system JAX Swiss Outbred mice; settings: for ALP (alkaline phosphatase) / ALT (alanine aminotransferase) / AST (aminotransferase) / BUN (blood urea nitrogen) / creatinine: mice plasma
Experimental: In vivo Toxicity study. An In vivo acute toxicity study of [^19F]F-cinacalcet was carried out in JAX Swiss Outbred mice. The mice were injected intravenously with an overdose of cold standard [^19F]F-cinacalcet (57.6 μg, ˜1000 times greater than the radiotracer [^18F]F-cinacalcet dose). Plasma samples were collected and analyzed at various time points. […] Alkaline phosphatase (ALP) and alanine transaminase (ALT) are two important biological indicators associated with liver function. […] It is very common to see a transient increase in blood AST after drug administration, which usually has no actual pathological significance. Blood urea nitrogen (BUN) and creatinine are two critical indicators for evaluating kidney function. There were no significant changes in BUN and creatinine levels in the mice injected with [^19F]F-cinacalcet compared with the vehicle controls. In addition, histopathological staining was performed on the kidney, liver, and heart tissues collected at different time points. […] The basic structures of the glomerulus, renal tubulus, liver lobule central vein, and cardiac muscle fibers remained intact.

CSR = biological target: T1, CSR (Homo sapiens, UniProt P41180); assay: Cell uptake and specific blocking assays in Hcc827 cells; settings: blocker 100 μM
T1 sequence (P41180 20-1078): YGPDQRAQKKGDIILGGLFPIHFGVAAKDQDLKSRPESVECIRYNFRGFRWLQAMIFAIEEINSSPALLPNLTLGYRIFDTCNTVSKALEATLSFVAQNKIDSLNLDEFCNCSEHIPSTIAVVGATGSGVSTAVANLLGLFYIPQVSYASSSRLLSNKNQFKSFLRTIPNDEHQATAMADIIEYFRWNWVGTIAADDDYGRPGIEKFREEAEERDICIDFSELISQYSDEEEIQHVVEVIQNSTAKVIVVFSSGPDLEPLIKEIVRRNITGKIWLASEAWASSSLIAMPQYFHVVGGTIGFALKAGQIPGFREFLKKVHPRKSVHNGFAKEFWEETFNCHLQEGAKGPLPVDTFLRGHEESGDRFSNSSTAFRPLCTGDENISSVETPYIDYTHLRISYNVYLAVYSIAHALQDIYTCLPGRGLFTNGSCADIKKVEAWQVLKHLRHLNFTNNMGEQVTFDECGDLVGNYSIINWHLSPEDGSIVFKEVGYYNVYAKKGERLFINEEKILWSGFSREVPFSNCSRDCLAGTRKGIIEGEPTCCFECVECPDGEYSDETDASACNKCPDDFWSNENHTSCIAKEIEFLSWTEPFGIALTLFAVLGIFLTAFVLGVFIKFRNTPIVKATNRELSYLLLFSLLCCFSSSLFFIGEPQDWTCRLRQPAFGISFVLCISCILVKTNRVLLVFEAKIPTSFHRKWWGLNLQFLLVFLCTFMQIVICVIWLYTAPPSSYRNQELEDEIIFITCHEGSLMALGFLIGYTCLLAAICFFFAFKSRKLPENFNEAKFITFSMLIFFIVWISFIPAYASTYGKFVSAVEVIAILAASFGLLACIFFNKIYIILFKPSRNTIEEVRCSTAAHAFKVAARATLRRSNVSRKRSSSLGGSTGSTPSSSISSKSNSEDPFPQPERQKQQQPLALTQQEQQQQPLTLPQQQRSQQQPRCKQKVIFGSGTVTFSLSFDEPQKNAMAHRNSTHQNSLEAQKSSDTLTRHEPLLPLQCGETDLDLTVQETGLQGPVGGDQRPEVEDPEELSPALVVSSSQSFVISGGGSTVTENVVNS

Question: With `C[C@@H](NCCCc1cccc(C(F)(F)F)c1)c1ccc(F)c2ccccc12` [[^19F]F-ZW-cinacalcet] as the compound, how does the “ALP (alkaline phosphatase)” value ([1]; 2 weeks after overdose) read?
Answer: The value was 80.33 ± 9.00 U/L.

Question: What about the “ALT (alanine aminotransferase)” value ([1]; 2 weeks after overdose) of the same compound?
Answer: Its value is 24.67 ± 0.94 U/L.

Question: And the “AST (aminotransferase)” value ([1]; 2 weeks after overdose)?
Answer: Its value is 82 ± 28.6 U/L.

Question: And the “BUN (blood urea nitrogen)” value ([1]; 2 weeks after overdose)?
Answer: The value was 18 ± 0.82 mg/dL.

Question: And the creatinine ([1]; 2 weeks after overdose)?
Answer: Its creatinine is 0.18 ± 0.01 mg/dL.

Question: What about the “ALP (alkaline phosphatase)” value ([1]; 1 h after overdose) of the same compound?
Answer: Its value is 87.67 ± 13.70 U/L.

Question: And the “ALT (alanine aminotransferase)” value ([1]; 1 h after overdose)?
Answer: The value was 29.33 ± 3.10 U/L.

Question: And the “AST (aminotransferase)” value ([1]; 1 h after overdose)?
Answer: Its value is 82.67 ± 21.68 U/L.

Question: And the “BUN (blood urea nitrogen)” value ([1]; 1 h after overdose)?
Answer: The value was 17 ± 1.41 mg/dL.

Question: What about the creatinine ([1]; 1 h after overdose) of the same compound?
Answer: The creatinine was 0.24 ± 0.09 mg/dL.

Question: And the “ALP (alkaline phosphatase)” value ([1]; 24 h after overdose)?
Answer: Its value is 54 ± 9.09 U/L.

Question: And the “ALT (alanine aminotransferase)” value ([1]; 24 h after overdose)?
Answer: Its value is 31.33 ± 9.10 U/L.

Question: What about the “AST (aminotransferase)” value ([1]; 24 h after overdose) of the same compound?
Answer: The value was 104.67 ± 45.38 U/L.

Question: What about the “BUN (blood urea nitrogen)” value ([1]; 24 h after overdose) of the same compound?
Answer: The value was 18.33 ± 1.25 mg/dL.

Question: And the creatinine ([1]; 24 h after overdose)?
Answer: Its creatinine is 0.25 ± 0.11 mg/dL.

Question: And the Acute toxicity ([1]; mice, i.v. overdose 57.6 μg)?
Answer: Its Acute toxicity is “no acute toxicity”.

Question: And the “Mortality and health changes” value ([1]; mice, i.v. overdose 57.6 μg, study period)?
Answer: Its value is “No animal deaths and significant health changes were observed”.

Question: And the “Histopathology of kidney, liver and heart (HE staining)” value ([1]; mice, i.v. overdose, different time points)?
Answer: The value was “no obvious pathological changes”.

Question: What about the “Block of [18F]F-ZW-cinacalcet uptake” value (CSR; 20 min post incubation) of the same compound?
Answer: The value was 89.9%.

Question: And the “Block of [18F]F-ZW-cinacalcet uptake” value (CSR; other time points)?
Answer: The value was “More than 87%”.
